Data reported in patent US10744104B2, “Neprilysin inhibitors” (THERAVANCE BIOPHARMA R&D IP, LLC, priority 2011, dated 2020).

Legend:
[1] = biological target: T1, NEP (Homo sapiens (Human), UniProt P08473); test: Assay 1: in vitro enzyme inhibition assay at human NEP (fluorogenic peptide substrate); type: biochemical; details: for pKi: comparative examples, exact values
Procedure: The assays were performed in 384-well white opaque plates at 37° C. using the fluorogenic peptide substrates at a concentration of 10 μM in Assay Buffer (NEP: 50 mM HEPES, pH 7.5, 100 mM NaCl, 0.01% polyethylene glycol sorbitan monolaurate (Tween-20), 10 μM ZnSO4; ACE: 50 mM HEPES, pH 7.5, 100 mM NaCl, 0.01% Tween-20, 1 μM ZnSO4).
Test compounds were assayed over the range of concentrations from 10 μM to 20 pM. Test compounds were added to the enzymes and incubated for 30 minute at 37° C. prior to initiating the reaction by the addition of substrate. Reactions were terminated after 20 minutes of incubation at 37° C. by the addition of glacial acetic acid to a final concentration of 3.6% (v/v).
Inhibition constants were obtained by nonlinear regression of the data using the equation (GraphPad Software, Inc., San Diego, Calif.): v=v0/[1+(I/K′)] where v is the reaction rate, v0 is the uninhibited reaction rate, I is the inhibitor concentration and K′ is the apparent inhibition constant.

[2] = biological target: T1, NEP; details: change of carboxylic acid chain length versus succinic acid compound 21a; cited from earlier work

| Compound | pKi [1] | decrease in activity relative to 21a [2] | further results |
| --- | --- | --- | --- |
| O=C(O)CCCC(=O)N[C@H](Cc1ccc(-c2ccccc2)cc1)C[C@@H](CO)C(=O)O [Comparative Compound H, (2S,4S)-5-Biphenyl-4-yl-4-(4-carboxy-butyrylamino)-2-hydroxmethylpentanoic Acid] | 8.6 |  |  |
| C[C@H](C[C@@H](Cc1ccc(-c2ccccc2)cc1)NC(=O)CCCCC(=O)O)C(=O)O [Example 21f] |  | 65 fold |  |
| C[C@H](CC(Cc1ccc(-c2ccccc2)cc1)NC(=O)CC(=O)O)C(=O)O (stereo partly drawn) [Example 21g] |  | 18 fold |  |
| O=C(O)CCCC(=O)N[C@H](Cc1ccc(-c2ccccc2)cc1)CC(O)C(=O)O (stereo partly drawn) [Comparative Compound E, (R)-5-Biphenyl-4-yl-4-(4-carboxybutrylamino)-2-hydroxypentanoic Acid] | 7.3 |  |  |
| C[C@H](C[C@@H](Cc1ccc(-c2ccccc2)cc1)NC(=O)CCCC(=O)O)C(=O)O [Example 21e] |  | 18 fold |  |
| O=C(N[C@H](Cc1ccc(-c2cccc(Cl)c2)cc1)C[C@@H](O)C(=O)O)C(=O)OCCC(F)(F)F [Example 2N, (2R,4R)-5-(3′-Chlorobiphenyl-4-yl)-2-hydroxy-4-[(3,3,3-trifluoropropoxyoxalyl)-amino]pentanoic Acid] |  |  | Ki ([1]; reported as ranges): ≤ 1 nM |
